Data published in ChEMBL document CHEMBL1134145, “Carbohydrate recognition of gramicidin S analogues in aqueous medium” (Bioorg Med Chem Lett, 2001).

Legend:
[1] = Dissociation constant of compound with Lactulose was determined; type: physicochemical
[2] = Dissociation constant of compound with Fructose was determined; type: physicochemical

Row | Kd [1] [µM] | Kd [2] [µM] | SMILES
1 | 30 |  | NCCC[C@@H]1NC(=O)[C@H](CCC(N)=O)NC(=O)[C@@H]2CCCN2C(=O)[C@@H](Cc2ccccc2)NC(=O)[C@H](Cc2c[nH]c3ccccc23)NC(=O)[C@H](CCCN)NC(=O)[C@H](CCC(N)=O)NC(=O)[C@@H]2CCCN2C(=O)[C@@H](Cc2ccccc2)NC(=O)[C@H](Cc2c[nH]c3ccccc23)NC1=O
2 | 200 | 1500 | NCCC[C@@H]1NC(=O)[C@H](CC(N)=O)NC(=O)[C@@H]2CCCN2C(=O)[C@@H](Cc2ccccc2)NC(=O)[C@H](Cc2c[nH]c3ccccc23)NC(=O)[C@H](CCCN)NC(=O)[C@H](CC(N)=O)NC(=O)[C@@H]2CCCN2C(=O)[C@@H](Cc2ccccc2)NC(=O)[C@H](Cc2c[nH]c3ccccc23)NC1=O
3 | 180 | 4700 | NCCC[C@@H]1NC(=O)[C@H](CC(=O)O)NC(=O)[C@@H]2CCCN2C(=O)[C@@H](Cc2ccccc2)NC(=O)[C@H](Cc2c[nH]c3ccccc23)NC(=O)[C@H](CCCN)NC(=O)[C@H](CC(N)=O)NC(=O)[C@@H]2CCCN2C(=O)[C@@H](Cc2ccccc2)NC(=O)[C@H](Cc2c[nH]c3ccccc23)NC1=O
4 |  | 1500 | NCCC[C@@H]1NC(=O)[C@H](CC(=O)O)NC(=O)[C@@H]2CCCN2C(=O)[C@@H](Cc2ccccc2)NC(=O)[C@H](Cc2c[nH]c3ccccc23)NC(=O)[C@H](CCCN)NC(=O)[C@H](CC(=O)O)NC(=O)[C@@H]2CCCN2C(=O)[C@@H](Cc2ccccc2)NC(=O)[C@H](Cc2c[nH]c3ccccc23)NC1=O
